Laboratory results: paper PMC4476799, “Englerin A Agonizes the TRPC4/C5 Cation Channels to Inhibit Tumor Cell Line Proliferation” (PLoS ONE, 2015)
Like-named read-outs stand apart in the source and are kept apart here.

Tested on: cancer cell lines from the cancer cell line encyclopedia (CCLE)
Test: Cell line profiling (CLiP) proliferation experiment
Assay type: cell-based
Details: Homo sapiens; for IC50: read-out: Crossing Point; for EC50: read-out: Inflection Point
Description: Compound profiling experiment and data analysis was performed as previously described. Data was imported and plotted using the Tibco Spotfire DXP application. Lines were categorized as sensitive, intermediate and refractory as follows: Amax<-40 & Inflection Point <2 ~ Sensitive, Amax>-20 & Inflection Point >10 ~ Refractory, all else were called Intermediate. Cancer Cell line HG-U133 Plus 2 data was processed and normalized as described. […] Five sets of refractory cell lines were generated from the pool of refractory cell lines trying to match the lineage composition of the set of sensitive cell lines. The limma package was used as previously described to perform the statistical comparison.

[1] = CHP-212, CHP-212, autonomic_ganglia, NS
[2] = COLO 205, COLO 205, large_intestine, adenocarcinoma
[3] = COLO-668, COLO 668, lung, small_cell_carcinoma
[4] = COR-L279, COR-L279, lung, small_cell_carcinoma
[5] = Calu-6, Calu-6, lung, undifferentiated_carcinoma
[6] = DMS-114, DMS 114, lung, small_cell_carcinoma
[7] = DMS-273, DMS 273, lung, small_cell_carcinoma
[8] = DOHH-2, cell line DOHH-2, haematopoietic_and_lymphoid_tissue
[9] = EFM-19, cell line EFM-19, breast
[10] = FaDu, cell line FaDu, upper_aerodigestive_tract
[11] = G-401, cell line G-401, soft_tissue
[12] = HCC1143, cell line HCC1143, breast

## CC(C)[C@@]12C[C@@H](O)[C@@](C)(O1)[C@@H]1CC[C@@H](C)[C@H]1[C@@H]2OC(=O)/C=C/c1ccccc1 [Englerin B]
CHL-1, CHL-1, skin, NS
  IC50: 26.2 µM
CHL-1, CHL-1 cells
  IC50: 26.2 µM
[1]
  IC50: 22.7 µM
  EC50: 13.9 µM
CHP-212, CHP-212 cells
  EC50: 13.9 µM
CMK, CMK cells
  IC50: > 30 µM
[2]
  IC50: 16.5 µM
  EC50: 11.8 µM
COLO 205, COLO 205 cells
  EC50: 11.8 µM
COLO 320, COLO-320, large_intestine, adenocarcinoma
  IC50: 11 µM
[3]
  IC50: 26 µM
  EC50: 26 µM
COLO-668, COLO 668 cells
  IC50: 26 µM
  EC50: 26 µM
COLO-680N, COLO-680N (oesophagus)
  IC50: > 30 µM
COLO-680N, oesophagus, squamous_cell_carcinoma
  IC50: > 30 µM
COLO-741, COLO 741, skin, NS
  IC50: > 30 µM
  EC50: 11.6 µM
COLO-741, COLO 741 cells
  IC50: > 30 µM
  EC50: 11.6 µM
COLO-800, COLO-800, skin, NS
  IC50: > 30 µM
COLO-800, cell line COLO-800 (skin, NS)
  IC50: > 30 µM
COLO-829, COLO 829, skin, NS
  IC50: > 30 µM
COLO-829, COLO 829 cells
  IC50: > 30 µM
COR-L23, COR-L23 (lung)
  IC50: > 30 µM
COR-L23, COR-L23, lung, large_cell_carcinoma
  IC50: > 30 µM
COR-L47, COR-L47, lung, small_cell_carcinoma
  IC50: > 30 µM
COR-L47, COR-L47 cells
  IC50: > 30 µM
COR-L88, COR-L88 (lung)
  IC50: > 30 µM
COR-L88, COR-L88, lung, small_cell_carcinoma
  IC50: > 30 µM
[4]
  IC50: 6.69 µM
  EC50: 6.69 µM
Calu-1, Calu-1, lung, squamous_cell_carcinoma
  IC50: > 30 µM
Calu-1, cell line Calu-1
  IC50: > 30 µM
Calu-3, Calu-3 (lung)
  IC50: > 30 µM
Calu-3, Calu-3, lung, adenocarcinoma
  IC50: > 30 µM
[5]
  IC50: > 30 µM
  EC50: 11.6 µM
Calu-6, Calu-6 cells
  IC50: > 30 µM
  EC50: 11.6 µM
Caov-3, Caov-3, ovary, adenocarcinoma
  IC50: 15.3 µM
DBTRG-05MG, cell line DBTRG-05MG (central_nervous_system, astrocytoma_Grade_IV)
  IC50: > 30 µM
DBTRG-05MG, central_nervous_system, astrocytoma_Grade_IV
  IC50: > 30 µM
DLD-1, DLD-1, large_intestine, adenocarcinoma
  IC50: 21.7 µM
DMS-79, DMS 79 (lung)
  IC50: > 30 µM
DMS-79, cell line DMS 79, lung
  IC50: > 30 µM
[6]
  IC50: 17.5 µM
  EC50: 11.7 µM
DMS-114, cell line DMS 114
  IC50: 17.5 µM
[7]
  IC50: 16.4 µM
  EC50: 13.7 µM
[8]
  IC50: 13.1 µM
  EC50: 12.9 µM
DU-145, cell line DU 145, prostate
  IC50: 8.94 µM
DV-90, cell line DV-90, lung
  IC50: 18 µM
  EC50: 14.9 µM
Daoy, Daoy (central_nervous_system)
  IC50: > 30 µM
Daoy, central_nervous_system, NS
  IC50: > 30 µM
Detroit 562, Detroit 562, upper_aerodigestive_tract, NS
  IC50: > 30 µM
Detroit 562, cell line Detroit 562
  IC50: > 30 µM
EBC-1, cell line EBC-1, lung
  IC50: 24 µM
  EC50: 11.6 µM
EFM-19, cell line EFM-19 (breast, ductal_carcinoma)
  IC50: > 30 µM
[9]
  IC50: > 30 µM
  EC50: 7.15 µM
EOL1, cell line EOL-1, haematopoietic_and_lymphoid_tissue
  IC50: 11.8 µM
ESS-1, cell line ESS-1, endometrium
  IC50: 18.7 µM
[10]
  IC50: 17.8 µM
  EC50: 12.9 µM
G-361, cell line G-361, skin
  IC50: > 30 µM
G-361, cell line G-361
  IC50: > 30 µM
[11]
  IC50: 14.3 µM
  EC50: 11.9 µM
G-401, cell line G-401
  EC50: 11.9 µM
G-402, cell line G-402, soft_tissue
  IC50: 9.9 µM
GA-10, cell line GA-10, haematopoietic_and_lymphoid_tissue
  IC50: > 30 µM
GA-10, cell line GA-10
  IC50: > 30 µM
GAMG, GAMG (central_nervous_system)
  IC50: > 30 µM
GAMG, cell line GAMG, central_nervous_system
  IC50: > 30 µM
GCIY, cell line GCIY, stomach
  IC50: 15.8 µM
GMS-10, cell line GMS-10, central_nervous_system
  IC50: > 30 µM
GMS-10, cell line GMS-10
  IC50: > 30 µM
Granta-519, cell line GRANTA-519, haematopoietic_and_lymphoid_tissue
  IC50: > 30 µM
Granta-519, cell line GRANTA-519
  IC50: > 30 µM
HCC38, cell line HCC38, breast
  IC50: > 30 µM
HCC38, cell line HCC38
  IC50: > 30 µM
HCC44, cell line HCC-44, lung
  IC50: 22.8 µM
HCC95, cell line HCC-95, lung
  IC50: 27.6 µM
  EC50: 26.7 µM
HCC827, cell line HCC827, lung
  IC50: 19.3 µM
[12]
  IC50: > 30 µM
  EC50: 9.85 µM
